Experiments:
[1] = Oxygen and carbon dioxide partial pressures of the PFB before bubbling, after bubbling and after intrarectal administration; parameters: species or system mice; details: after oxygen bubbling vs before
C57BL6J mice = assay: Intrarectal oxygenated perflubron in mice having respiratory failure, SpO2 monitor; type: in vivo; details: 15% hypoxic condition; 40 mL/kg into the rectum
Description: Experiment was carried out to administer oxygenated perflubron to mice having respiratory failure. PFB manufactured by OriGen Biomedical (Perflubron, product name: Liquivent) was oxygenated by oxygen bubbling. Male C57BL6J mice (male) ranging from 20 to 30 g were grouped into two groups: control group (physiological saline administration group); and I-EVA group (using oxygenated perflubron). The mice of the control group were each anesthetized by intraperitoneal administration of ketamine (80 to 100 mg/kg) and xylazine (10 mg/kg) and subjected to inhalation under 15% hypoxic condition, and, when SpO2 just exceeded 70%, perflubron was administered into the rectum at 40 mL/kg, and effects on respiratory failure were validated by using an SpO2 monitor.

C57BL/6J mice [2] = assay: Behavior analysis (walking distance) of ILV-treated hypoxic mice; type: in vivo; details: per 20 seconds; FiO2 0.10; 120 minutes after injection to the intestinal tract
Description: Behavioral improvement in ILV-treated hypoxic mice was analyzed. The mobilities of mice were monitored for a set of two parameters from a fitted ellipse (centroidal positions (x, y)). With use of these parameters, walking distance was calculated every 20 seconds for mice of a control group and a treated group (both n=3). […] For the treated group, an O2-labeled perfluorocarbon was used as described above, and inhalation of hypoxic gas (FiO2 0.10) was performed 120 minutes after the injection to the intestinal tract (FIG. 4A).

[3] = Blood PFD concentration by GC/MS/MS; type: in vivo; details: 0.5 hours, 2 hours, and 24 hours after administration, n=6
Description: (§1) The blood PDF concentration 0.5 hours, 2 hours, and 24 hours after administration of perfluorodecalin (PFD) was measured by GC/MS/MS at times (n=6). […] Systemic toxicity after six cycles of administration of PDF was examined.

LEWIS rats = assay: Intrarectal oxygenated perfluorodecalin, blood gas (FIG. 9); type: in vivo; details: for blood oxygen partial pressure vs physiological saline: intrarectal 20 mL/kg
Description: As an experiment for reproduction, LEWIS rats (male) ranging from 250 to 350 g were grouped into three groups: control group; I-EVA group (using research-grade perfluorodecalin (PFD) from Wako Pure Chemical Industries, Ltd.); and I-EVA group (using clinical-grade perfluorodecalin from F2C). Perfluorodecalin bubbled with pure oxygen gas was administered into the rectum of each rat at 20 mL/kg, and 15 minutes and 120 minutes thereafter the arterial blood was collected under anesthesia and 21% oxygen inhalation, and the oxygen partial pressure was measured.
Next, C57BL6J mice ranging from 20 to 30 g were grouped into two group: control group (physiological saline administration group); and I-EVA group (using perfluorodecalin from F2C with oxygenation). The mice of the control group were each anesthetized by intraperitoneal administration of ketamine (80 to 100 mg/kg) and xylazine (10 mg/kg) and subjected to inhalation under 15% hypoxic condition, and, when SpO2 just exceeded 70%, oxygenated perfluorodecalin was administered into the rectum at 40 mL/kg, and effects on respiratory failure were validated by using an SpO2 monitor. After the completion of the experiment, the perfluorodecalin enterally administered was recovered, and the carbon dioxide concentration was measured to compare with that measured before the operation.

hypoxic pigs = assay: Intrarectal oxygenated PFC in hypoxic pigs; type: in vivo; details: intrarectal administration
[4] = system: acute respiratory distress syndrome (ARDS) pig model; assay: Intrarectal oxygenated PFC in acute respiratory distress syndrome (ARDS) pig model; type: in vivo; details: ARDS pigs
Description: Furthermore, an acute respiratory distress syndrome (ARDS) pig model was produced, and improvement of oxygen partial pressure by intrarectal administration of oxygenated PFC was examined. First, micromini pigs and pork pigs (female) were used to produce an ARDS model. Physiological saline was directly administered into the airway at 40 mL/kg. […] Histological examination of lung tissue confirmed impairment of alveolar walls such as the formation of hyaline membranes, the formation of residual protein layers in alveolar spaces, and septal hypertrophy. […] Then, the thus-produced ARDS pigs were each subjected to laparotomy by median incision, and a drain for administration of perfluorodecalin was placed at a depth of 40 cm from the anus, and an […] DennisTM Colorectal Tube for recovery of perfluorodecalin was placed in the anus side.

mice = assay: Oral administration of PFD subjected to oxygen bubbling, left ventricular blood gas; type: in vivo
Description: PFD subjected to oxygen bubbling was administered to mice through oral administration, and the effects on blood oxygen partial pressure and carbon dioxide partial pressure were examined. As a negative control, a mouse group with oral administration of physiological saline ([…]; n=3) was used. […] In the negative control group, in contrast to that, there were smaller amounts of contents in the intestinal tract than in the bubbled-PFD oral administration group (FIG. 14A). An attempt was made to recover contents by inserting a syringe into the intestinal tract. In the attempt, transparent liquid suspected to be PFD was successfully recovered in the syringe for the bubbled-PFD oral administration group (FIG. 14B). For the negative control group, by contrast, such liquid was not recovered, and nothing recovered was left in the syringe. […] One hour after administration, tracheostomy was performed, and ventilation was performed with room air under management with a ventilator. Thoracotomy was performed and blood was collected from the heart, and the oxygen partial pressure and carbon dioxide partial pressure in the blood obtained were measured by iSTAT.

[5] = Systemic toxicity after six cycles of administration of PFD, analysis of serum; type: in vivo; details: for ALP / AST / Albumin / CK / Calcium / Chloride / Creatinine / Erythrocytes / Glucose / Hematocrit / Hemoglobin / Leukocytes / Platelets / Pottasium / Sodium / Total cholesterol / Tri-glyceride / Urea nitrogen / ALT: 6 doses (time/day), blood collection Day 2; for ALT: *p < 0.05
Description: as §1

C57BL/6J mice [6] = assay: ILV in respiratory failure model, oxygen partial pressure in left ventricle (FiO2 0.10); type: in vivo
Description: In ILV experiment, mice were randomly assigned to two groups: sham group (group 13, n=4); and ILV groups (group 18, n=4; group 19, n=4). The PFC was given to each mouse via the intestinal tract in the above-described manner, and 60 minutes and 120 minutes thereafter the oxygen partial pressure in the left ventricle of the heart under inhalation of hypoxic gas was analyzed (FiO2 0.10, inhalation time: 10 minutes).

C57BL/6J mice [7] = assay: Intestinal liquid ventilation (ILV) with oxygenated PFC, oxygen partial pressure in inferior vena cava; type: in vivo; details: 120 min after 1 mL PFC via the intestinal tract
Description: (§2) With use of a liquid perfluorocarbon (PFC)^12-16, an intestinal gas ventilation (ILV) system was developed. Mice were randomly assigned to two groups: sham group (group 9, n=10); and intestinal gas ventilation group (group 12, n=12). For the intestinal gas ventilation (ILV), a PFC (octadecafluorodecahydronaphthalene, Wako Pure Chemical Industries, Ltd., Osaka, Japan) was bubbled with pure oxygen for 45 minutes to dissolve oxygen therein.

[8] = Oxygen partial pressure of PFC bubbled with pure oxygen; type: physicochemical
Description: as §2
First, an O2-containing PFC was prepared (by O2 bubbling at 1 L/min over 45 minutes; FIG. 3A). For mice (groups 12, 18, 19; hereinafter, referred to as intestinal gas ventilation (ILV) groups), the liquid of PFC was then infused into the intestinal tract (i.e., the rectum) in a total volume of 1 mL/mouse. The average oxygen pressure in the PFC after O2 bubbling for 45 minutes was 438±19.9 mmHg (n=3, FIG. 4E). Effects on the treated mice were evaluated by mobility assay. In summary, the walking distances of the mice were calculated to find statistical increase for the group with O2—PFC liquid infusion therapy after inhalation of hypoxic gas (the ILV group with administration of the O2-containing PFC) as compared with the control group (FiO2 0.10, control group, 0.408±1.02 cm per 20 seconds; FiO2 0.10, treated group, 3.34±4.05 cm, p<0.0001, FIG. 3B).

[9] = 120 minutes after administration
[10] = oral 250 μL/mouse, heart blood one hour after administration, room air ventilation

FC(F)(F)C(F)(F)C(F)(F)C(F)(F)C(F)(F)C(F)(F)C(F)(F)C(F)(F)Br [PFB, 1-bromo-heptadecafluorooctane]
oxygen partial pressure of the PFB [1]: enhanced oxygen partial pressure
SpO2 (C57BL6J mice): significant recovery of SpO2

FC1(F)C(F)(F)C(F)(F)C2(F)C(F)(F)C(F)(F)C(F)(F)C(F)(F)C2(F)C1(F)F (stereo not shown) [PFD, octadecafluorodecahydronaphthalene]
walking distance (C57BL/6J mice [2]): 3.34±4.05 cm
blood PFD concentration (detection limit) [3]: < 1 µg/mL
blood carbon dioxide partial pressure vs physiological saline (LEWIS rats; [9]): significantly decreasing blood carbon dioxide partial pressure
blood oxygen partial pressure vs physiological saline (LEWIS rats; 15 minutes after administration): enhancing blood oxygen partial pressure
blood oxygen partial pressure vs physiological saline (LEWIS rats; [9]): enhancing blood oxygen partial pressure
blood oxygen partial pressure (hypoxic pigs): improvement in blood oxygen partial pressure
carbon dioxide partial pressure (hypoxic pigs): decrease in carbon dioxide partial pressure
oxygen saturation (hypoxic pigs): improved the oxygen saturation
acidosis [4]: did not exhibit marked acidosis
oxygen partial pressure, improvement ([4]; oxygenated perfluorodecalin repeatedly at 20 mL/kg intrarectal): about 300 mmHg
gastrointestinal transit after oral administration (mice; oral 250 μL/mouse to the stomach by probe): passed through the stomach and arrived at the intestine
blood carbon dioxide partial pressure vs negative control group (mice; [10]): tendency to exhibit decreased blood carbon dioxide partial pressure
blood oxygen partial pressure vs negative control group (mice; [10]): tendency to exhibit increased blood oxygen partial pressure
ALP ([5]; PFD dose volume 1 ml/head): 470 ± 112 U/L
AST ([5]; PFD dose volume 1 ml/head): 68 ± 2 U/L
Albumin ([5]; PFD dose volume 1 ml/head): 2.6 ± 0.1 g/dL
CK ([5]; PFD dose volume 1 ml/head): 170 ± 22 U/L
Calcium ([5]; PFD dose volume 1 ml/head): 10.1 ± 0.1 mg/dL
Chloride ([5]; PFD dose volume 1 ml/head): 103 ± 1 mmol/L
Creatinine ([5]; PFD dose volume 1 ml/head): 0.2 mg/dL
Erythrocytes ([5]; PFD dose volume 1 ml/head): 752 ± 24 ×10^4/μl
Glucose ([5]; PFD dose volume 1 ml/head): 123 ± 22 mg/dL
Hematocrit ([5]; PFD dose volume 1 ml/head): 45.0 ± 1.1%
Hemoglobin ([5]; PFD dose volume 1 ml/head): 15.1 ± 0.7 g/dL
Leukocytes ([5]; PFD dose volume 1 ml/head): 102 ± 18 10^2/μL
Platelets ([5]; PFD dose volume 1 ml/head): 112 ± 11.5 10^4/µL
Pottasium ([5]; PFD dose volume 1 ml/head): 3.6 ± 0.2 mmol/L
Sodium ([5]; PFD dose volume 1 ml/head): 143 mmol/L
Total cholesterol ([5]; PFD dose volume 1 ml/head): 75 ± 20 mg/dL
Tri-glyceride ([5]; PFD dose volume 1 ml/head): 21 ± 7 mg/dL
Urea nitrogen ([5]; PFD dose volume 1 ml/head): 14 ± 2 mg/dL
ALT ([5]; PFD dose volume 1 ml/head): 24 ± 3* U/L
ALP ([5]; PFD dose volume 1.5 ml/head): 540 ± 64 U/L
AST ([5]; PFD dose volume 1.5 ml/head): 72 ± 5 U/L
Albumin ([5]; PFD dose volume 1.5 ml/head): 2.6 ± 0.1 g/dL
CK ([5]; PFD dose volume 1.5 ml/head): 196 ± 12 U/L
Calcium ([5]; PFD dose volume 1.5 ml/head): 9.9 ± 0.3 mg/dL
Chloride ([5]; PFD dose volume 1.5 ml/head): 105 ± 1 mmol/L
Creatinine ([5]; PFD dose volume 1.5 ml/head): 0.3 ± 0.1 mg/dL
Erythrocytes ([5]; PFD dose volume 1.5 ml/head): 791 ± 24 ×10^4/μl
Glucose ([5]; PFD dose volume 1.5 ml/head): 123 ± 18 mg/dL
Hematocrit ([5]; PFD dose volume 1.5 ml/head): 45.6 ± 1.4%
Hemoglobin ([5]; PFD dose volume 1.5 ml/head): 15.2 ± 0.6 g/dL
Leukocytes ([5]; PFD dose volume 1.5 ml/head): 88 ± 5 10^2/μL
Platelets ([5]; PFD dose volume 1.5 ml/head): 124 ± 20.1 10^4/µL
Pottasium ([5]; PFD dose volume 1.5 ml/head): 3.6 ± 0.2 mmol/L
Sodium ([5]; PFD dose volume 1.5 ml/head): 143 ± 1 mmol/L
Total cholesterol ([5]; PFD dose volume 1.5 ml/head): 71 ± 22 mg/dL
Tri-glyceride ([5]; PFD dose volume 1.5 ml/head): 20 ± 4 mg/dL
Urea nitrogen ([5]; PFD dose volume 1.5 ml/head): 14 ± 2 mg/dL
ALT ([5]; PFD dose volume 1.5 ml/head): 25 ± 1* U/L
toxicity due to intrarectal administration ([5]; six cycles of administration, serum analysis): no particular toxicity
ratio of arterial oxygen partial pressure between the control group and the treated group (C57BL/6J mice [6]; FiO2 0.10): approximately 1.6
ventricular (arterial) oxygen partial pressure, PaO2 (C57BL/6J mice [6]; ILV group, hypoxic environment (FiO2 0.10)): 63.8±5.59 mmHg
oxygen partial pressure in the left ventricle of the heart vs control group (C57BL/6J mice [6]; hypoxic environment (FiO2 0.10), 60 minutes after ILV): significantly higher
oxygen partial pressure in the left ventricle of the heart, pressure difference ILV group vs control group (C57BL/6J mice [6]; hypoxic environment (FiO2 0.10), after 120 minutes): 23.8±3.11 mmHg
oxygen partial pressure in the inferior vena cava, pressure difference ILV group vs control group (C57BL/6J mice [7]): 9.40±3.65 mmHg
average oxygen pressure in the PFC ([8]; after O2 bubbling for 45 minutes (1 L/min), n=3): 438±19.9 mmHg
average pressure of oxygen in the perfluorocarbon ([8]; bubbled with pure oxygen, after 120 minutes): 438±19.9 mmHg
